Results as given in patent publication US4368199A, “Novel derivatives of 3,4,5-trimethoxy cinnamoyl piperazine, their salts, the process for preparing the same and their application in therapeutics” (Delalande S.A., priority 1980, dated 1983).
Where a name gives a salt, the structure may show the parent alone. Read-outs that look alike come from different tables or passages of the source.

Columns and labels:
dogs = test: Haemodynamic tests on dogs anaesthetized with sodic pentobarbital (arterial pressure, cardiac frequency, coronary flow, cardiac contractile force); assay type: in vivo; conditions: dog; for change in vivo at 0.625 mg/kg / change in vivo at 2.5 mg/kg: Canis lupus familiaris, iv
Protocol: Tests were carried out on dogs anaesthetized with sodic pentobarbital (30 mg/kg/i.v.) and the compounds of formula (I) were administered intravenously. The activity on the cardiac contractile force was measured with a BRODIE and WALTON stress gauge fixed to the left ventricle.
The arterial pressure was measured at the femoral artery with a SANBORN pressure sensor.
The cardiac frequency was automatically counted by means of a cardiotachymeter from the pulse pressure wave.
The coronary flow was measured by means of an electromagnetic probe of the STATHAM or BIOTRONEX type at the coronary artery.

[1] = Acute toxicity in the mouse (MILLER and TAINTER method); conditions: in vivo; for LD50: read-out: LD 50 (mouse)
Protocol: The acute toxicity was assessed in accordance with the MILLER and TAINTER method (Proc. Sci. Exp. Biol. Med. 1944, 57, 261)

[2] = 0.625 mg/kg/i.v., read-out: Increase of the cardiac contractile force
[3] = 0.625 mg/kg/i.v., read-out: Increase of the coronary flow
[4] = 0.625 mg/kg/i.v., read-out: Variation of the average arterial pressure
[5] = 0.625 mg/kg/i.v., read-out: Variation of the cardiac frequency
[6] = 2.5 mg/kg/i.v., read-out: Increase of the coronary flow
[7] = 2.5 mg/kg/i.v., read-out: Variation of the average arterial pressure
[8] = 2.5 mg/kg/i.v., read-out: Variation of the cardiac frequency
[9] = 2.5 mg/kg/i.v., read-out: Increase of the cardiac contractile force
[10] = po, at 1000 mg/kg, read-out: LD 50 column: percentage in parentheses (p.o.)

| Structure (SMILES) | change in vivo at 0.625 mg/kg (dogs; [2]) [%] | change in vivo at 0.625 mg/kg (dogs; [3]) [%] | change in vivo at 0.625 mg/kg (dogs; [4]) [%] | change in vivo at 0.625 mg/kg (dogs; [5]) [%] | change in vivo at 2.5 mg/kg (dogs; [6]) [%] | change in vivo at 2.5 mg/kg (dogs; [7]) [%] | change in vivo at 2.5 mg/kg (dogs; [8]) [%] | Increase of the coronary flow: duration (dogs; 0.625 mg/kg/i.v.) [mn] | Variation of the cardiac frequency: duration (dogs; 0.625 mg/kg/i.v.) [mn] | Increase of the cardiac contractile force (dogs; 2.5 mg/kg/i.v.) | Increase of the cardiac contractile force: duration (dogs; 2.5 mg/kg/i.v.) [mn] | Increase of the coronary flow: duration (dogs; 2.5 mg/kg/i.v.) [mn] | LD50 ([1]; iv) [mg/kg] | change in vivo at 2.5 mg/kg (dogs; [9]) [%] | Increase of the cardiac contractile force: duration (dogs; 0.625 mg/kg/i.v.) [mn] | Variation of the average arterial pressure: duration (dogs; 2.5 mg/kg/i.v.) [mn] | mortality [1, 10] [%] | Variation of the average arterial pressure: duration (dogs; 0.625 mg/kg/i.v.) [mn] | Variation of the cardiac frequency: duration (dogs; 2.5 mg/kg/i.v.) [mn] | mortality ([1]; iv, at 200 mg/kg, read-out: LD 50 column: percentage in parentheses) [%] |
| --- | --- | --- | --- | --- | --- | --- | --- | --- | --- | --- | --- | --- | --- | --- | --- | --- | --- | --- | --- | --- |
| COc1ccc(CN2CCN(C(=O)C=Cc3cc(OC)c(OC)c(OC)c3)CC2)cc1OC [Compound 2] | 71 | 93 | -12 | 6 | 76 to 398 | -25 | 8 | < 20 | < 5 | +58 to | > 308 | > 30 | 105 | – | – | – | – | – | – | – |
| COc1cc(C=CC(=O)N2CCN(CCc3cccc(O)c3)CC2)cc(OC)c1OC [Compound 3] | 47 | 26 | -9 | 0 | 62 | -36 | 7 | 5 | – | – | – | – | > 200 | 62 | 30 | > 30 | – | – | – | – |
| COc1cc(C=CC(=O)N2CCN(CC(=O)c3ccc(OC)c(OC)c3OC)CC2)cc(OC)c1OC [Compound 7] | 69 | 277 | -22 | -2 to 15 | 416 | -35 | -8 to 9 | < 5 | – | – | < 10 | < 20 | – | 51 | – | – | 0 | – | – | – |
| COc1cc(C=CC(=O)N2CCN(CC(=O)c3ccc(OC)c4c3OCCO4)CC2)cc(OC)c1OC [Compound 10] | 9 | 39 | -7 | 2 | 46 | -16 | 12 | – | < 5 | – | 10 | – | 180 | 53 | < 10 | > 30 | – | < 5 | > 30 | – |
| COc1cc(C=CC(=O)N2CCN(Cc3ccc(NC(C)=O)cc3)CC2)cc(OC)c1OC [Compound 41] | – | – | – | – | – | -36 | -16 | – | – | – | – | – | > 200 | 35 | – | – | – | – | – | – |
| CNC(=O)Nc1ccc(CCN2CCN(C(=O)C=Cc3cc(OC)c(OC)c(OC)c3)CC2)cc1 [Compound 54] | – | – | – | – | 181 | -9 | 4 | – | – | – | – | – | > 200 | 48 | – | – | – | – | – | – |
| COc1cc(C=CC(=O)N2CCN(CC(=O)c3ccc4ccccc4c3)CC2)cc(OC)c1OC [Compound 62] | – | – | – | – | – | -14 | 4 | – | – | – | > 30 | – | 45 | 43 | – | 10 | – | – | 5 | – |
| COc1ccc(OC)c(C(=O)CN2CCN(C(=O)C=Cc3cc(OC)c(OC)c(OC)c3)CC2)c1 [Compound 70] | – | – | – | – | 27 | -21 | 5 | – | – | – | – | – | 168 | 50 | – | – | – | – | – | – |
| COc1ccc(C(O)CN2CCN(C(=O)C=Cc3cc(OC)c(OC)c(OC)c3)CC2)c(OC)c1 (stereo not shown) [Compound 89] | – | – | – | – | – | -38 | -10 | – | – | – | – | – | > 100 | 51 | – | > 30 | – | – | – | – |
| COc1ccc(OC)c(C(O)CN2CCN(C(=O)C=Cc3cc(OC)c(OC)c(OC)c3)CC2)c1 (stereo not shown) [Compound 90] | – | – | – | – | 15 | -11 | 0 | – | – | – | – | – | – | 42 | – | – | 80 | – | – | – |
| CNC(=O)Nc1ccc(C(O)CN2CCN(C(=O)C=Cc3cc(OC)c(OC)c(OC)c3)CC2)cc1 (stereo not shown) [Compound 95] | – | – | – | – | 27 | -20 | 8 | – | – | – | 10 | – | > 200 | 21 | – | – | – | – | – | – |
| COc1ccc(CC(O)CN2CCN(C(=O)C=Cc3cc(OC)c(OC)c(OC)c3)CC2)cc1OC (stereo not shown) [Compound 102, 3-[4-(3,4,5-trimethoxycinnamoyl) 1-piperazinyl]1-(3,4-dimethoxy)phenyl 2-propanol hydrochloride hydrate] | – | – | – | – | 34 | -26 | -4 | – | – | – | 10 | – | > 200 | 13 | – | > 30 | – | – | – | – |
| COc1cc(C=CC(=O)N2CCN(CCc3c[nH]c4ccccc34)CC2)cc(OC)c1OC [Compound 105] | – | – | – | – | 55 | -34 | 0 | – | – | – | – | – | > 200 | 17 | – | > 30 | – | – | – | – |
| COc1cc(C=CC(=O)N2CCN(C3CCc4cc(O)c(O)cc4C3)CC2)cc(OC)c1OC (stereo not shown) [Compound 108, 2-[4-(3,4,5-trimethoxycinnamoyl) 1-piperazinyl] 1,2,3,4-tetrahydro 6,7-dihydroxy naphthyl hydrate] | – | – | – | – | 29 | -20 | 3 | – | – | – | – | – | 200 | 44 | – | > 30 | – | – | – | 20 |
